Key:
rat adipocytes = experiment: Glucose uptake in isolated rat adipocytes; type: cell-based; conditions: insulin 100 nmol/l, 190-243 fragment 30 μg/ml, FIG. 9b
Protocol: Adipose cells were prepared as previously described (Rodbell (1964) J Biol Chem. 239: 375-80). In brief, epidydymal fat pads were minced and digested in Krebs-Ringer-bicarbonate-HEPES (KRBH) buffer, pH 7.4, containing 10 mM sodium bicarbonate, 30 mM HEPES, 200 nM adenosine, 1% bovine serum albumin (BSA) with 1 mg/ml collagenase. After digestion, the cells were filtered through nylon mesh (250 μm) and washed with KRBH-buffer.
Isolated rat adipocytes were treated for 60 min with insulin (100 nmol/l), 190-243 polypeptide fragment (having the amino acid sequence consisting of SEQ ID NO:1) (30 μg/ml) or 1-243 human apoA-I protein (150 μg/ml) followed by glucose uptake measurement by addition of UC14 tracer glucose (Perkin Elmer) (30 min). The uptake was terminated by centrifugation through dinonyl phtalate oil. Incubation with Cytochalasin B was used to subtract unspecific background binding. Amount of glucose was detected as count radioactivity measured by Beta CounterThe amount of glucose transported was measured using an isotope labeled UC14-assay.

GLUT4 = GLUT4 translocation to plasma membrane in primary FDB muscle fibers (HA immunofluorescence, ex vivo); type: cell-based; conditions: FDB fibers of HA-GLUT4-GFP mouse, 60 minutes, insulin 100 nmol/l, FIGS. 1d/7d, 4c/9a
Protocol: To support the glucose uptake observations described in Example 2, the ability of rHDL and the 190-243 polypeptide fragment (SEQ ID NO:1) to increase the amount of GLUT4 in the plasma membrane was assessed by immunofluorescence microscopy of intact primary skeletal flexor digitorum brevis (FDB) muscle fibers, isolated from a transgenic mouse model with muscle-specific HA-GLUT4-GFP expression (Lizunov et al. (2012) Am J Physiol Endocrinol Metab 302: E950-960). The HA epitope present on the first exofacial loop of the HA-GLUT4-GFP construct allows detection of GLUT4 inserted into the plasma membrane. Intact FDB fibers were incubated ex vivo with rHDL followed by fixation and HA antibody labeling of non-permeabilized cells as described below.
Two to five transgenic mice (C57/Bl6; 10-14 weeks) with muscle specific HA-GLUT4-GFP expression (gift from S. Cushman) (Lizunov et al. (2012) Am J Physiol Endocrinol Metab 302: E950-960), were used for each condition. The animals were euthanized and flexor digitorum brevis (FDB) muscles dissected out and incubated with oxygenated Krebs-Henseleit carbonate Hepes (KRBH) buffer (6 mmol/l KCl, 1 mmol/l Na2HPO4, 0.2 mmol/l NaHPO4, 1.4 mmol/l MgSO4, 1 mmol/l CaCl2, 128 mmol/l NaCl, 10 mmol/l HEPES pH 7.4) with 0.5% (w/v) bovine serum albumin. […]

[1] = test system: insulin resistant C57Bl/6 mice; experiment: Glucose tolerance test in high-fat diet fed (HFD) mice; type: in vivo, mouse
Protocol: Male C57BL/6 mice (Taconic) were used at 9-12 weeks of age. Animals were on a 12 hour light cycle with non-restricted food and water. The HFD animals were fed an HFD (D12492, 60% fat content; Research Diets) for 2 weeks. All animal procedures were approved by the Malmo/Lund Committee for Animal Experiment Ethics, Lund, Sweden. HFD mice fasted overnight (12 hours) were injected intra peritoneal (i.p.) with apoA-I peptides as listed above ([…] in PBS pH 7.4 for the 54-mer fragment and 6-7 mg/kg for other fragments in PBS, pH 7.4; control animals received NaCl) and this was followed by collection of serum samples at the indicated times. Glucose (50 mg/mouse) was injected i.p. 3 hours after treatments, followed by collection of serum samples at the indicated times. Blood glucose levels were measured (OnetouchUltra2; Lifescan), and insulin levels were assayed in serum using ELISA (Mercodia).

AMPK = experiment: Western blot for phosphorylated AMPK in L6 myotube lysates; type: cell-based; conditions: L6 myotubes, 60 minutes; 2, 10 or 20 μmol/l 190-243 peptide; FIG. 8c
Protocol: Prior to stimulation or treatment cultured myoblast cells were serum starved for 4 hours in serum-free α-MEM and all subsequent treatments, including insulin or phenformin as positive controls (Sigma), were performed in serum free a-MEM. After treatments, cells were washed with ice cold PBS buffer and lysed on ice using a non-denaturing lysis buffer (1% Triton X-100, 50 mmol/l Tris, 150 mmol/l NaCl, pH 8.0) containing protease and phosphatase inhibitors (Roche). Lysates were centrifuged at 16,000×g, 20 minutes at 4° C. and BCA protein assay (Pierce) was performed on supernatants. Equal protein amounts were separated by SDS-PAGE and transferred to nitrocellulose membranes. pAMPK, AMPK, pACC, pAkt, Akt and tubulin were used for immunodetection with IRDye 800CW and 680RD secondary antibodies (LI-COR). Blots were imaged using the Odyssey Fc system and quantified using Image studio v2.0 software.
To dissect the effect of discoidal rHDL on a non-insulin dependent signaling pathway, we conducted western blotting using lysates from L6 myotubes incubated with rHDL. […] Phenformin was used as a positive control, inducing a 1.98±0.33-fold (p=≦0.05) and 2.7±0.74-fold (p=≦0.05) elevation of phosphorylated AMPK and ACC, respectively, at a concentration of 0.4 mmol/l. […] Representative immunoblots of those quantified for FIGS. 3a, c and f are given in FIGS. 3b, d and e, respectively. […]

[2] = 7 mg/kg i.p., 120 minutes of the test

Substance	glucose uptake in adipocytes (in words) (rat adipocytes)	GLUT4 in the sarcolemma plasma membrane (HA signal, in words) (GLUT4)	increase of glucose-stimulated insulin secretion (AUC) versus control [1, 2]	reduction of total glucose (AUC) versus control [1, 2]	insulin secretion in glucose tolerance test (in words) ([1]; single i.p. injection 7 mg/kg, glucose load 3 hours later, FIG. 10c,d)	levels of phosphorylated AMPK (in words) (AMPK)
insulin	significantly induced	induced translocation of GLUT4 into the sarcolemma plasma membrane				
190-243 polypeptide fragment: polypeptide fragment consisting of amino acids 190-243 of the full-length human apoA-I protein, C-terminal domain, 54-mer, recombinant (AEYHAKATEHLSTLSEKAKPALEDLRQGLLPVLESFKVSFLSALEEYTKKLNTQ; listed as Homo Sapiens)	significantly induced	greater membrane levels of GLUT4 protein	about 60%	about 40%	significantly improved	increased levels of phosphorylated AMPK
